Reference: US8183258B2, “Heterocyclic compounds and their uses” (Amgen Inc., priority 2007, dated 2012)
Like-named read-outs stand apart in the source and are kept apart here. Values belong to the compound of their own block, whether it stands above or below them.

How the values were obtained:
[1] = test system: mouse model of rheumatoid arthritis; conditions: in vivo; cited from earlier work
[2] = test system: model of systemic lupus erythematosis; conditions: in vivo; cited from earlier work
PI3Kδ = target: T1, PI3Kδ (Homo sapiens, UniProt O00329); test: In vitro enzyme assay, residual ATP bioluminescence; format: biochemical
T1 construct: Full length p110 subunits of PI3k α, β and δ; polyHis (N); made in house; host or cells: Sf9 insect cells (baculovirus)
T1 sequence (P27986 whole entry partner, one chain of several): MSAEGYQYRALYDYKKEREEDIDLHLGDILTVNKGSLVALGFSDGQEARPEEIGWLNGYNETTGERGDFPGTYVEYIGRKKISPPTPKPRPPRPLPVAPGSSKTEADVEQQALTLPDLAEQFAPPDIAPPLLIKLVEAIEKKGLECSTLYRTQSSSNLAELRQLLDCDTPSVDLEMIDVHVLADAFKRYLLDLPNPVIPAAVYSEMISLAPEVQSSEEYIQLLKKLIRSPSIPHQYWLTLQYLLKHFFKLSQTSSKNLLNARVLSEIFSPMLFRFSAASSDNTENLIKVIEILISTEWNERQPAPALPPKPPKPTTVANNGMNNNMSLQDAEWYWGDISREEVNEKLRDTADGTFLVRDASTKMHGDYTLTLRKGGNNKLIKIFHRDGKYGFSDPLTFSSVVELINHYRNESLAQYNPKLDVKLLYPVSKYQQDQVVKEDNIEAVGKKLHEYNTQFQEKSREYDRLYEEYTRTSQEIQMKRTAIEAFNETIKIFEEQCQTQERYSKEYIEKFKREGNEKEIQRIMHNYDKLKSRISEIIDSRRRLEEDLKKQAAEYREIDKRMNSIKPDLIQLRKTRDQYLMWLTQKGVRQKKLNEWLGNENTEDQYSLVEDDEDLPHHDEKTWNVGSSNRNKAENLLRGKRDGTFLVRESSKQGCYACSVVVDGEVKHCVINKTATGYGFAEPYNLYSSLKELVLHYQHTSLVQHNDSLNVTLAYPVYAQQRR
Procedure: Full length p110 subunits of PI3k α, β and δ, N-terminally labeled with polyHis tag, were coexpressed with p85 with Baculo virus expression vectors in sf9 insect cells. P110/p85 heterodimers were purified by sequential Ni-NTA, Q-HP, Superdex-100 chromatography. Purified α, β and δ isozymes were stored at −20° C. in 20 mM Tris, pH 8, 0.2M NaCl, 50% glycerol, 5 mM DTT, 2 mM Na cholate. Truncated PI3Kγ, residues 114-1102, N-terminally labeled with polyHis tag, was expessed with Baculo virus in Hi5 insect cells. The γ isozyme was purified by sequential Ni-NTA, Superdex-200, Q-HP chromatography. The γ isozyme was stored frozen at −80° C. in NaH2PO4, pH 8, 0.2M NaCl, 1% ethylene glycol, 2 mM β-mercaptoethanol.
Assays were performed in 25 μL with the above final concentrations of components in white polyproplyene plates (Costar 3355). Phospatidyl inositol phosphoacceptor, PtdIns(4,5)P2 P4508, was from Echelon Biosciences. The ATPase activity of the alpha and gamma isozymes was not greatly stimulated by PtdIns(4,5)P2 under these conditions and was therefore omitted from the assay of these isozymes. Test compounds were dissolved in dimethyl sulfoxide and diluted with three-fold serial dilutions. The compound in DMSO (1 μL) was added per test well, and the inhibition relative to reactions containing no compound, with and without enzyme was determined. After assay incubation at room temperature, the reaction was stopped and residual ATP determined by addition of an equal volume of a commercial ATP bioluminescence kit (Perkin Elmer EasyLite) according to the manufacturer's instructions, and detected using a AnalystGT luminometer.

protein kinases = conditions: cited from earlier work
[3] = test system: passive cutaneous anaphylaxis (PCA); conditions: absence of functional delta (compound or p110δ D910A mice); cited from earlier work
[4] = test system: ovalbumin-induced airway inflammation; conditions: cited from earlier work
p110δ = target: T2, p110δ (Homo sapiens, UniProt O00329); conditions: cited from earlier work
T2 sequence (O00329 1-1044): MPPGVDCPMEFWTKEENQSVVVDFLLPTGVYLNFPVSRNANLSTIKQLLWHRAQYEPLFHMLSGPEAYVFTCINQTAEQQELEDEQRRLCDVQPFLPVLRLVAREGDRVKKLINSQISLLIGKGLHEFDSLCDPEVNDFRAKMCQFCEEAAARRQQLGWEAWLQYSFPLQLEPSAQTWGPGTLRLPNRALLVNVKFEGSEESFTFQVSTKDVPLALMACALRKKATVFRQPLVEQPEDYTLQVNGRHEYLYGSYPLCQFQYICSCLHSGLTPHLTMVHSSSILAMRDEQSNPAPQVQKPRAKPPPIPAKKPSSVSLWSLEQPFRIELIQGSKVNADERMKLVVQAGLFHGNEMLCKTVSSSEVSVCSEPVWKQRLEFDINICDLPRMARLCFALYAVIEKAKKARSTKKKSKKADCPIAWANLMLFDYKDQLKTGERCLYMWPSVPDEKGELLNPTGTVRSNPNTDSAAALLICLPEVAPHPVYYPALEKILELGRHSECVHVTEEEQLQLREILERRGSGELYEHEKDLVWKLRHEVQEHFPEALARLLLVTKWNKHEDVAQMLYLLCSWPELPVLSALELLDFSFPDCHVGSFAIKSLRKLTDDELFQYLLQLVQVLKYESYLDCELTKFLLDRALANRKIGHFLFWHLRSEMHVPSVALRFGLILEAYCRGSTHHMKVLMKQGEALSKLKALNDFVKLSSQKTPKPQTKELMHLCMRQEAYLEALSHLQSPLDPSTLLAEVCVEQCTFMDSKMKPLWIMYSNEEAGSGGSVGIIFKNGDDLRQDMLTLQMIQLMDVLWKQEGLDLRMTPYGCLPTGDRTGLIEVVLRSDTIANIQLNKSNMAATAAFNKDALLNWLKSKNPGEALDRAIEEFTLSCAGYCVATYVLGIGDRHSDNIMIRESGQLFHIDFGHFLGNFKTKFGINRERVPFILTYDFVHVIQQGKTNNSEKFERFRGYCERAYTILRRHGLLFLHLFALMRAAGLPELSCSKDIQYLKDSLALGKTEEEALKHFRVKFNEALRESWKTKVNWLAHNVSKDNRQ

Structure (SMILES): O=C1NC(=O)/C(=C\c2ccc3nccnc3c2)S1 [AS 605240]
- efficacy in a mouse model of rheumatoid arthritis [1]: efficacious
- onset of disease in a model of systemic lupus erythematosis [2]: delay onset of disease

Structure (SMILES): Cc1cccc2cc(CNc3nc(N)ncc3Cl)c(-c3ccccc3Cl)nc12 [Example 1, 5-Chloro-N4-((2-(2-chlorophenyl)-8-methylquinolin-3-yl)methyl)pyrimidine-2,4-diamine]
- IC50 (PI3Kδ; read-out: PI3Kδ IC50): 165 nM

Structure (SMILES): Nc1cc(NCc2cc3cccc(Cl)c3nc2-c2ccccc2Cl)ncn1 [Example 2, N4-((8-Chloro-2-(2-chlorophenyl)quinolin-3-yl)-methyl)pyrimidine-4,6-diamine]
- IC50 (PI3Kδ; read-out: PI3Kδ IC50): 6870 nM

Structure (SMILES): Cc1ccccc1-n1c(Cn2cnc3c(N)ncnc32)nc2cccc(C)c2c1=O [IC87114]
- activity against any protein kinases tested (protein kinases): no activity
- passive cutaneous anaphylaxis (PCA) [3]: significantly reduced
- inflammation and disease in a murine model of asthma [4]: significantly ameliorate inflammation and disease
- inhibition of p110δ (p110δ): high nanomolar range (triple digit)

Second part, the compound after the results:

- IC50 (PI3Kδ; read-out: PI3Kδ IC50): 127 nM
Structure (SMILES): Cc1cccc2cc(CNc3nc(N)ncc3C(F)(F)F)c(-c3ccccc3Cl)nc12 [Example 3, N4-((2-(2-chlorophenyl)-8-methylquinolin-3-yl)methyl)-5-(trifluoromethyl)pyrimidine-2,4-diamine]

- IC50 (PI3Kδ; read-out: PI3Kδ IC50): 2820 nM
Structure (SMILES): Cc1cccc2cc(CNc3ncc(C(F)(F)F)c(N)n3)c(-c3ccccc3Cl)nc12 [Example 4, N2-((2-(2-chlorophenyl)-8-methylquinolin-3-yl)methyl)-5-(trifluoromethyl)pyrimidine-2,4-diamine]

- IC50 (PI3Kδ; table after the in vitro enzyme assays, isoform and unit inferred, read-out: IC50): > 40000 nM
Structure (SMILES): NC(=O)c1cc(NS(=O)(=O)c2cc3cccc(Cl)c3nc2-c2ccccc2Cl)ccn1 [Example 7, 4-(8-chloro-2-(2-chlorophenyl)quinoline-3-sulfonamido)picolinamide]
